# Reference: ChEMBL document CHEMBL1201862, “PubChem BioAssay data set” (2004)
#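 Method: 48-hour compound exposure of cells in 96-well plates, five concentrations, linear interpolation of endpoints. Abbreviation: GI50, concentration required for 50% inhibition of growth.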 Activity calls are given as the source filed them. Rule as the data show it: active = GI50 up to about 1.1 µM and inactive = higher.
# Legend:
# Test in all cases: NCI anticancer screen, dose series, 48 h
# [1] = test system: HT-29
# [2] = test system: SF-295
# [3] = test system: Malme-3M
# [4] = test system: OVCAR-3
# [5] = test system: COLO 205
# [6] = test system: OVCAR-4
# [7] = test system: UACC-257
# [8] = test system: SNB-19
# [9] = test system: LOX IMVI
# [10] = test system: BT-549
# [11] = test system: NCI-H460
# [12] = test system: SW-620
# [13] = test system: MCF7
# [14] = test system: PC-3
# [15] = test system: T47D
# [16] = test system: K562
# [17] = test system: MOLT-4
# [18] = test system: SF-268
# [19] = test system: A498
# [20] = test system: SNB-75
SMILES,GI50 [1],GI50 [2],GI50 [3],GI50 [4],GI50 [5],GI50 [6],GI50 [7],GI50 [8],GI50 [9],GI50 [10],GI50 [11],GI50 [12],GI50 [13],GI50 [14],GI50 [15],GI50 [16],GI50 [17],GI50 [18],GI50 [19],GI50 [20]
c1ccc2c(c1)C(=Nc1ccc(N=C3c4ccccc4-c4ccccc43)cc1)c1ccccc1-2,> 100 µM (inactive),> 100 µM (inactive),> 100 µM (inactive),> 100 µM (inactive),> 100 µM (inactive),> 100 µM (inactive),> 100 µM (inactive),> 100 µM (inactive),> 100 µM (inactive),> 100 µM (inactive),> 100 µM (inactive),> 100 µM (inactive),> 100 µM (inactive),> 100 µM (inactive),> 100 µM (inactive),> 100 µM (inactive),> 100 µM (inactive),> 100 µM (inactive),> 100 µM (inactive),
CCCC(=O)OCC1OC(n2cc(F)c(=O)[nH]c2=O)CC1OC(=O)CCC (centres undefined),,0.127 µM (active),> 6.43 µM (inactive),1.67 µM (inactive),> 6.5 µM (inactive),> 10 µM (inactive),3.79 µM (inactive),,0.0236 µM (active),0.376 µM (active),0.119 µM (active),> 10 µM (inactive),0.0169 µM (active),1.55 µM (inactive),> 6.15 µM (inactive),1.16 µM (inactive),4.63 µM (inactive),0.0368 µM (active),0.484 µM (active),
CCCCCCN(CCCCCC)CCC(=O)c1ccc2cc(Br)c3ccccc3c2c1,66.1 µM (inactive),59 µM (inactive),89.1 µM (inactive),33 µM (inactive),22.6 µM (inactive),,64.7 µM (inactive),44.3 µM (inactive),32 µM (inactive),20.3 µM (inactive),30.5 µM (inactive),43.7 µM (inactive),20.2 µM (inactive),31.3 µM (inactive),23.3 µM (inactive),41.1 µM (inactive),,28.1 µM (inactive),36.3 µM (inactive),
O=C1CSC2=NCC3(NN12)c1ccccc1-c1ccccc13,> 10 µM (inactive),> 10 µM (inactive),> 10 µM (inactive),,> 10 µM (inactive),> 10 µM (inactive),> 10 µM (inactive),> 10 µM (inactive),> 10 µM (inactive),> 10 µM (inactive),> 10 µM (inactive),> 10 µM (inactive),> 10 µM (inactive),> 10 µM (inactive),> 10 µM (inactive),> 10 µM (inactive),> 10 µM (inactive),> 10 µM (inactive),,> 10 µM (inactive)
CC(C)=NN/C(=N\c1ccc(Cl)cc1)NS(=O)(=O)c1ccc(Oc2cccc(Cl)c2C#N)cc1,> 100 µM (inactive),> 100 µM (inactive),> 100 µM (inactive),> 100 µM (inactive),> 100 µM (inactive),> 100 µM (inactive),> 100 µM (inactive),> 100 µM (inactive),> 100 µM (inactive),> 100 µM (inactive),> 100 µM (inactive),> 100 µM (inactive),> 100 µM (inactive),> 100 µM (inactive),> 100 µM (inactive),> 100 µM (inactive),> 100 µM (inactive),> 100 µM (inactive),,
O=C(CCCl)NN=C1NCCCCN1,> 100 µM (inactive),> 100 µM (inactive),> 100 µM (inactive),> 100 µM (inactive),> 100 µM (inactive),> 100 µM (inactive),> 100 µM (inactive),> 100 µM (inactive),> 100 µM (inactive),> 100 µM (inactive),> 100 µM (inactive),> 100 µM (inactive),> 100 µM (inactive),> 100 µM (inactive),> 100 µM (inactive),> 100 µM (inactive),> 100 µM (inactive),> 100 µM (inactive),,> 100 µM (inactive)
Cc1ccc(NC(=O)/C(Cc2cc(=O)oc3cc(O)ccc23)=N\NC(C)(C)C)cc1C,> 100 µM (inactive),> 100 µM (inactive),,> 100 µM (inactive),> 100 µM (inactive),68.9 µM (inactive),> 100 µM (inactive),> 100 µM (inactive),> 100 µM (inactive),> 100 µM (inactive),> 100 µM (inactive),> 100 µM (inactive),> 100 µM (inactive),> 100 µM (inactive),> 100 µM (inactive),> 100 µM (inactive),> 100 µM (inactive),> 100 µM (inactive),> 100 µM (inactive),
CCN(CC)c1ccc(/C=c2\nc(-c3ccccc3)n3c2nc2ccccc23)cc1,1.89 µM (inactive),4.58 µM (inactive),13 µM (inactive),9.62 µM (inactive),5.14 µM (inactive),3.17 µM (inactive),21.9 µM (inactive),83.8 µM (inactive),2.04 µM (inactive),16.9 µM (inactive),1.98 µM (inactive),4.7 µM (inactive),14.6 µM (inactive),1.93 µM (inactive),0.0256 µM (active),3.77 µM (inactive),1.63 µM (inactive),26.5 µM (inactive),64.4 µM (inactive),
COc1ccc(-c2nc(N)c(C#N)c3c2CCS(=O)(=O)c2ccc(C)cc2-3)cc1OC,30.1 µM (inactive),,26.5 µM (inactive),39.6 µM (inactive),27.8 µM (inactive),25.8 µM (inactive),22.6 µM (inactive),27.5 µM (inactive),48.3 µM (inactive),21.8 µM (inactive),28.2 µM (inactive),34.9 µM (inactive),,11.9 µM (inactive),39.1 µM (inactive),10.7 µM (inactive),,51.2 µM (inactive),23.3 µM (inactive),23.7 µM (inactive)
CC1=C(/C=C/C(C)=C/C=C/C(C)=C/C(=O)OC2CC(n3cc(F)c(=O)[nH]c3=O)OC2CO)C(C)(C)CCC1 (centres undefined),2.71 µM (inactive),0.148 µM (active),12.1 µM (inactive),4.72 µM (inactive),6.93 µM (inactive),6.01 µM (inactive),7.91 µM (inactive),3.34 µM (inactive),2.15 µM (inactive),1.58 µM (inactive),0.0429 µM (active),10.6 µM (inactive),0.057 µM (active),1.99 µM (inactive),4.17 µM (inactive),1.63 µM (inactive),0.2 µM (active),0.252 µM (active),,1.07 µM (active)
CN(C)/C=C/c1c2c(nc3ccccc13)C(=O)c1ccccc1C2=O,1.54 µM (inactive),0.875 µM (active),0.71 µM (active),,1.79 µM (inactive),1.58 µM (inactive),0.498 µM (active),1.83 µM (inactive),0.067 µM (active),1.77 µM (inactive),0.262 µM (active),1.62 µM (inactive),0.7 µM (active),0.752 µM (active),1.41 µM (inactive),0.151 µM (active),1.03 µM (active),1.77 µM (inactive),3.91 µM (inactive),
